# Reference: patent publication US8575168B2, “Compounds and compositions as modulators of GPR119 activity” (IRM LLC, priority 2009, dated 2013)
# Target: T1, human GPR119 (Homo sapiens, UniProt Q8TDV5)
# T1 construct: expressed in transfected cells
# T1 sequence (Q8TDV5 1-335): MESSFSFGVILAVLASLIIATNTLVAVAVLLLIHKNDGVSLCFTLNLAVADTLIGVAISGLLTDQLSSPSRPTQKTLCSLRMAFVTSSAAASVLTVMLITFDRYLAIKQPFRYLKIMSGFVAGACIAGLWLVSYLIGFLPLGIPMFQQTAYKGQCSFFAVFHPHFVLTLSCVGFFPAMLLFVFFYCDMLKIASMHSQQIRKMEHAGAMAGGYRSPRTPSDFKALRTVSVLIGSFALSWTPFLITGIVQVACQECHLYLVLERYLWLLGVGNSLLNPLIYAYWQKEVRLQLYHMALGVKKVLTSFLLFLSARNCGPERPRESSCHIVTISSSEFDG
# Test: Cyclic AMP Assay in Stable Cell Line (HTRF)
# Type: cell-based
# Conditions: Flp-In-CHO-hGPR119 cells, intracellular cAMP, 30 minutes at 37° C., 1 mM IBMX
# Experimental: Flp-In-CHO cells (Invitrogen, Cat. #R758-07) are maintained in Ham's F12 medium supplemented with 10% fetal bovine serum, 1% antibiotic mixture and 2 mM L-glutamine. The cells are transfected with a DNA mixture containing human GPR119 in pcDNA5/FRT vector and the pOG44 vector (1:9) using Fugene6 (Roche), according to the manufacturer's instruction. After 48 hours, the medium is changed to medium supplemented with 400 μg/ml hygromycin B to initiate the selection of stably transfected cells.
# To test the activity of compounds of the invention, Flp-In-CHO-hGPR119 cells are harvested and resuspended in DMEM plus 3% lipid-depleted fetal bovine serum. Forth μl of cells are plated in 384 well plates at a density of 15,000 cells/well. IBMX (3-isobutyl-1-methyl-xanthine) is added to the cells to a final concentration of 1 mM, followed by the addition of 500 nl of the compound to be tested. The cells are incubated at 37° C. for 30 minutes. Equal volume (20 μl) of the HTRF reagents, anti-cAMP-Cryptate and cAMP-XL665, are added to the cells. The plates are incubated at room temperature for 1 hour and read on a HTRF reader according to the manufacturer's instruction.
row,Structure (SMILES),EC50 [nM]
1,CS(=O)(=O)N1CCC(c2cc(F)c(OC3CN(Cc4ccc5ccccc5c4)C3)c(F)c2)CC1 [Example A30],135
2,"CS(=O)(=O)N1CCC(F)(c2cc(F)c(OC3CCN(Cc4nc(C(F)(F)F)no4)CC3)c(F)c2)CC1 [Example D1, 5-((4-(2,6-difluoro-4-(4-fluoro-1-(methylsulfonyl)piperidin-4-yl)phenoxy)piperidin-1-yl)methyl)-3-(trifluoromethyl)-1,2,4-oxadiazole]",199
3,CS(=O)(=O)N1CCC(c2ccc(OC3CCN(Cc4nc(C(F)(F)F)no4)CC3)c(F)c2F)CC1 [Example B27],11
4,CC(c1nc(C(F)(F)F)no1)N1CCC(Oc2c(F)cc(C3CCN(S(C)(=O)=O)CC3)cc2F)CC1 (stereo not drawn) [Example B30],78
5,CS(=O)(=O)N1CCC(c2ccc(OC3CCN(Cc4nc(C(F)(F)F)no4)CC3)c(F)c2)CC1 [Example B6],37
6,Cn1nc(C(F)(F)F)cc1CN1CCC(Oc2c(F)cc(C3CCN(S(C)(=O)=O)CC3)cc2F)CC1 [Example B14],70
7,"CC(F)(F)c1noc(CN2CCC(Oc3c(F)cc(C4CCN(S(C)(=O)=O)CC4)cc3F)CC2)n1 [Example B3, 5-((4-(2,6-difluoro-4-(1-(methylsulfonyl)piperidin-4-yl)phenoxy)piperidin-1-yl)methyl)-3-(1,1-difluoroethyl)-1,2,4-oxadiazole]",16
8,CS(=O)(=O)N1CCC(c2cc(F)c(OC3CN(Cc4nc(C(F)(F)F)no4)C3)c(F)c2)CC1 [Example B12],55
9,CS(=O)(=O)N1CCC(c2cc(F)c(OC3CN(Cc4nc(C(F)(F)F)cs4)C3)c(F)c2)CC1 [Example B17],74
10,CS(=O)(=O)N1CCC(c2ccc(OC3CCN(Cc4nc(C(F)(F)F)no4)CC3)cc2)CC1 [Example B26],37
11,CS(=O)(=O)N1CCC(c2cc(F)c(OC3CCN(Cc4ccc(C(F)(F)F)cc4)CC3)c(F)c2)CC1 [Example A5],9
12,CS(=O)(=O)N1CCC(c2cc(F)c(OC3CCCN(Cc4ccc(C(F)(F)F)cc4)CC3)c(F)c2)CC1 (stereo not drawn) [Example C2],125
13,Cc1ccc(CN2CC(Oc3ccc(N4CCN(S(C)(=O)=O)CC4)nc3)C2)cc1 [Example A14],238
14,CS(=O)(=O)N1CCC(c2cc(F)c(OC3CN(Cc4nc(C5CC5)no4)C3)c(F)c2)CC1 [Example B10],131
15,CC(C)c1ccc(CN2CC(Oc3cnc(N4CCN(C(=O)OCc5ccccc5)CC4)cn3)C2)cc1 [Example A10],666
16,CS(=O)(=O)N1CCN(c2ccc(OC3CN(Cc4ccc(C(F)(F)F)cc4)C3)c(F)c2)CC1 [Example A43],115
17,CS(=O)(=O)N1CCN(c2ccc(OC3CN(Cc4ccc(Cl)cc4)C3)cn2)CC1 [Example A15],134
18,CS(=O)(=O)N1CCN(c2cnc(OC3CN(Cc4ccc(C(F)(F)F)cc4)C3)cn2)C(=O)C1 [Example A3],20
19,CS(=O)(=O)N1CCC(c2cc(F)c(OC3CCN(Cc4csc(C(F)(F)F)n4)CC3)c(F)c2)CC1 [Example B18],52
20,CC(C)c1ccc(CN2CC(Oc3cnc(N4CCN(S(C)(=O)=O)CC4=O)cn3)C2)cc1 [Example A19],12
21,CS(=O)(=O)N1CCN(c2ccc(OC3CN(Cc4cccc(C(F)(F)F)c4)C3)cn2)CC1 [Example A16],884
22,CS(=O)(=O)N1CCC(c2cc(F)c(OC3CN(Cc4csc(C(F)(F)F)n4)C3)c(F)c2)CC1 [Example B19],448
23,O=S(=O)(C1CCOCC1)N1CCC(c2cc(F)c(OC3CN(Cc4ccc(C(F)(F)F)cc4)C3)c(F)c2)CC1 [Example A36],28
24,CS(=O)(=O)N1CCC(c2ccc(OC3CCN(Cc4nc(C(F)(F)F)no4)CC3)cc2F)CC1 [Example B7],16
